Literature values in patent publication US10695378B2, “Direct reprogramming of cells to cardiac myocyte fate” (Duke University, priority 2010, dated 2020).

Assays:
[1] = system: TGFβ-induced epithelial-to-mesenchymal transition
JAK1 = conditions: small molecule inhibitors of JAK-1
[2] = not given; remark: listed apart in the source
[3] = not given; remark: listed apart in the source

Structure (SMILES): Cc1cccc(-c2nn(C(=S)Nc3ccccc3)cc2-c2ccnc3ccccc23)n1 [A83-01, 3-(6-Methyl-2-pyridinyl)-N-phenyl-4-(4-quinolinyl)-1H-pyrazole-1-carbothioamide]
- TGFβ-induced epithelial-to-mesenchymal transition [1]: inhibits
- phosphorylation of Smad2 (Smad2): blocks

Structure (SMILES): N#CC[C@H](C1CCCC1)n1cc(-c2ncnc3[nH]ccc23)cn1 [INCB018424]
- IC50 values (in words) (JAK1): nanomolar range

Structure (SMILES): CC(C)(C)c1nc2c3ccc(F)cc3c3c(=O)[nH]ccc3c2[nH]1 [JAK inhibitor 1, 2-(1,1-Dimethylethyl)-9-fluoro-3,6-dihydro-7H-benz[h]-imidaz[4,5-f]isoquinolin-7-one]
- phosphorylation of STATS: blocks
- IC50 values (in words) (JAK1): nanomolar range

Structure (SMILES): O=C(O)C=C(CCc1ccc(Cl)cc1)c1ccccc1 [PS48, 5-(4-Chloro-phenyl)-3-phenyl-pent-2-enoic acid]
- soluble in DMSO [2]: > 20 mg/mL

Structure (SMILES): O=C(O)C(Cc1c[nH]c2ccccc12)N1C(=O)c2ccccc2C1=O (stereo not shown) [RG108, 2-(1,3-Dioxo-1,3-dihydro-2H-isoindol-2-yl)-3-(1H-indol-3-yl)propionic acid]
- doubling time in culture (human tumor cell line): increases
- human tumor cell line proliferation (human tumor cell line): inhibit

Structure (SMILES): CCCC(CCC)C(=O)O [Valproic acid, 2-propylpentanoic acid]
- therapeutic range ([3]; currently established therapeutic range): 50 to 120 µg/mL
- Serum or plasma valproic acid concentrations ([3]; during controlled therapy): 20 to 100 mg/L
